Here are results for one compound from patent US12048783B2, “2,4-disubstituted pyridines as malodor counteracting ingredients” (FIRMENICH SA, priority 2017, dated 2024).

This test has as its target T1, OR4S2 (Homo sapiens, UniProt Q8NH73).
T1 construct: expressed in transfected cells
T1 sequence (Q8NH73 1-311): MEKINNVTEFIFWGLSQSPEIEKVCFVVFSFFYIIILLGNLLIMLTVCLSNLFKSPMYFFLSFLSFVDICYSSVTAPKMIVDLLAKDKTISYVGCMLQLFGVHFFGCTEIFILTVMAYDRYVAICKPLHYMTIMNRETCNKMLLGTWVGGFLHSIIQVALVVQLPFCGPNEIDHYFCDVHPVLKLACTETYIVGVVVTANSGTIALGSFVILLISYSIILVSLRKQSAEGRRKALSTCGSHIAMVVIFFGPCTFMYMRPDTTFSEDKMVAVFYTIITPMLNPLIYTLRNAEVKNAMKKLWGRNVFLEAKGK
Description: Inhibition of malodor compound induced olfactory receptor activity in stable cell lines. In kind it is cell-based. To be noted: inhibition of OR4S2 activity in presence of a single activating concentration of DMTS.

The pEC50 is −log10 of the EC50, conventionally taken in molar units.

pEC50: −log10 of the molar value.

For `CCCCCc1cc(C)ccn1`, the pEC50 was 4.04.
